Test systems include Escherichia coli K99; Escherichia coli UB1005; Escherichia coli 078; Escherichia coli K88; Candida albicans.
Test in all cases: ≥ marks a high value that may be exact or a test limit, other limits are often not marked, values filed in µg/mL are converted to µM
For test [1], the system named is Staphylococcus aureus ATCC 43300.
The subject of test [2] is Candida tropicalis CGMCC 2.1975.
Test [3] concerns Salmonella enterica subsp. enterica serovar Pullorum ATCC 7913.
In test [4] the test system is Staphylococcus aureus ATCC 25923.
For test [5], the system named is Pseudomonas aeruginosa ATCC 27853.
Test [6] deals with Salmonella enterica subsp. enterica serovar Typhimurium ATCC 14028.
Test [7] relates to Staphylococcus epidermidis ATCC 12228.
The test system of test [8] is Salmonella enterica subsp. enterica serovar Typhimurium C77-31.
Test [9] has as its system Candida albicans CGMCC 2.2086.
Test [10] has as its system Candida parapsilosis CGMCC 2.3989.
For test [11], the system named is Candida albicans NCYC 1467.
The test system of test [12] is Staphylococcus aureus NCTC 10788.
The test system of test [13] is Staphylococcus aureus NCTC 12493.
Test [14] deals with Klebsiella pneumoniae ATCC 43816.
Test [15] deals with Escherichia coli NCTC 10418.
Test [16] deals with Enterococcus faecalis NCTC 12697.
Test [17] relates to Micrococcus luteus ATCC 49732.
For test [18], the system named is Staphylococcus aureus ATCC 29737.
Test [19] has as its system Candida albicans ATCC 10231.
In test [20] the test system is Escherichia coli ATCC 25922.
Test [21] relates to Bacillus subtilis ATCC 23857.
Test [22] relates to Klebsiella aerogenes ATCC 13048.
Test [23] has as its system Pseudomonas aeruginosa ATCC 9027.
The test system of test [24] is Acinetobacter baumannii ATCC 19606.
Test [25] deals with Klebsiella pneumoniae ATCC 700603.
In test [26] the test system is Candida albicans ATCC 90028.
Test [27] concerns Cryptococcus neoformans ATCC 208821.

SMILES strings stand for the structures. Values after ≈ are worked out from the molar mass of the structure shown. Values joined by “and” are separate entries in the source; they are usually repeats but may differ in a detail not shown here. Identical values can stand only once.

In the case of `CC[C@H](C)[C@H](NC(=O)[C@H](CCCN=C(N)N)NC(=O)[C@H](C)NC(=O)[C@H](C)N)C(=O)N[C@H](C(=O)N[C@@H](CC(C)C)C(=O)N[C@@H](CCCN=C(N)N)C(=O)N[C@@H](CCCN=C(N)N)C(=O)N[C@@H](CCCN=C(N)N)C(=O)N[C@@H](Cc1ccccc1)C(=O)N[C@@H](CCCN=C(N)N)C(N)=O)[C@@H](C)CC` [AARIILRRRFR], the MIC (as a rule, the smallest concentration in the dilution series that meets the test's criterion for growth inhibition) against Escherichia coli K99 is 8 µM (≈ 11.4 µg/mL); in [1], 16 µM (≈ 22.8 µg/mL); in test [2], not below 64 µM; in [3], 16 µM (≈ 22.8 µg/mL); in test [4], 32 µM (≈ 45.7 µg/mL); in test [5] it was more than 128 µM. Further, the minimal inhibitory concentration (MIC) in [6] was 32 µM (≈ 45.7 µg/mL); in [7] it was 16 µM (≈ 22.8 µg/mL); against Escherichia coli UB1005 it was 16 µM (≈ 22.8 µg/mL); in test [8], 8 µM (≈ 11.4 µg/mL); in test [9], not below 128 µM; against Escherichia coli 078, 16 µM (≈ 22.8 µg/mL). In addition, the MIC in the test with Escherichia coli K88 is 16 µM (≈ 22.8 µg/mL); in test [10], not below 64 µM.
Regarding `CC[C@H](C)[C@H](NC(=O)[C@H](C)NC(=O)[C@H](CO)NC(=O)[C@@H](NC(=O)[C@@H](NC(=O)[C@H](CCCCN)NC(=O)[C@@H]1CCCN1C(=O)[C@@H](NC(=O)[C@H](CC(C)C)NC(=O)[C@H](CO)NC(=O)[C@H](CC(C)C)NC(=O)[C@@H](N)Cc1ccccc1)[C@@H](C)CC)[C@@H](C)CC)[C@@H](C)CC)C(=O)N[C@@H](CO)C(=O)N[C@@H](C)C(=O)N[C@@H](CC(C)C)C(=O)N[C@H](C(=O)N[C@@H](CC(N)=O)C(=O)N[C@@H](Cc1cnc[nH]1)C(=O)N[C@@H](Cc1ccccc1)C(N)=O)[C@@H](C)CC` [FLSLIPKIISAISALINHF], the minimum inhibitory concentration (MIC) in test [11] was not below 32 µM; in test [12] it was 2 µM (≈ 4.19 µg/mL); in [5] it was more than 512 µM; in test [13] it was not below 128 µM; in [14], not below 512 µM; in test [15], not below 512 µM. The same compound came in with an MIC in test [16] not below 32 µM.
For `CC[C@H](C)[C@H](NC(=O)[C@H](CO)NC(=O)[C@@H]1CCCN1C(=O)[C@H](CC(C)C)NC(=O)[C@H](CC(C)C)NC(=O)[C@H](CO)NC(=O)[C@H](CC(C)C)NC(=O)[C@@H](N)Cc1ccccc1)C(=O)N[C@H](C(=O)N[C@@H](CO)C(=O)NCC(=O)N[C@@H](C)C(=O)N[C@H](C(=O)N[C@@H](CO)C(=O)N[C@@H](CC(C)C)C(=O)N[C@@H](C)C(=O)N[C@@H](CCCCN)C(=O)N[C@@H](CCCCN)C(=O)N[C@@H](CC(C)C)C(N)=O)C(C)C)C(C)C` [FLSLLPSIVSGAVSLAKKL], the MIC in [17] was found to be 1.3 µM (≈ 2.53 µg/mL).
`CC(C)C[C@H](NC(=O)[C@H](CCC(N)=O)NC(=O)[C@H](CCC(N)=O)NC(=O)[C@H](C)NC(=O)CNC(=O)[C@H](C)NC(=O)[C@H](CCCCN)NC(=O)CNC(=O)[C@@H](NC(=O)[C@H](CCC(N)=O)NC(=O)[C@H](CCCCN)NC(=O)[C@H](CCCN=C(N)N)NC(=O)[C@H](CC(C)C)NC(=O)[C@H](Cc1ccc(O)cc1)NC(=O)[C@H](CCCCN)NC(=O)[C@H](C)NC(=O)CNC(=O)[C@H](C)NC(=O)[C@H](CCCCN)NC(=O)[C@H](Cc1ccccc1)NC(=O)[C@H](CC(C)C)NC(=O)[C@H](CO)NC(=O)[C@H](CO)NC(=O)[C@H](Cc1ccccc1)NC(=O)CN)C(C)C)C(N)=O` [GFSSLFKAGAKYLRKQVGKAGAQQL]: the minimal inhibitory concentration (MIC) in test [11] was not below 64 µM; in test [12], 16 µM (≈ 42.5 µg/mL); in test [5], 16 µM (≈ 42.5 µg/mL); in test [13], not below 64 µM; in test [14], not below 128 µM; in test [15] it was 8 µM (≈ 21.2 µg/mL). Further, the MIC in test [16] is 16 µM (≈ 42.5 µg/mL).
Take `CC(C)C[C@H](NC(=O)[C@H](C)NC(=O)CNC(=O)[C@H](CCCN=C(N)N)NC(=O)[C@H](CCCN=C(N)N)NC(=O)[C@H](CCCN=C(N)N)NC(=O)[C@H](CCC(N)=O)NC(=O)[C@H](CCCN=C(N)N)NC(=O)[C@H](CCCN=C(N)N)NC(=O)[C@H](CCCCN)NC(=O)[C@H](CCCCN)NC(=O)[C@H](CCCN=C(N)N)NC(=O)CN)C(=O)N[C@@H](Cc1c[nH]c2ccccc12)C(=O)N[C@@H](CCCCN)C(=O)N[C@@H](CO)C(=O)N[C@@H](CC(C)C)C(=O)N[C@@H](CC(C)C)C(=O)N[C@@H](CCCCN)C(=O)N[C@@H](CC(N)=O)C(=O)N[C@H](C(=O)NCC(=O)N[C@@H](CCCCN)C(=O)N[C@@H](C)C(N)=O)C(C)C` [GRKKRRQRRRGALWKSLLKNVGKA]: the minimum inhibitory concentration (MIC) in [11] was 4 µM (≈ 11.4 µg/mL); in test [12] it was 8 µM (≈ 22.9 µg/mL); in test [5], 8 µM (≈ 22.9 µg/mL); in test [13], 16 µM (≈ 45.8 µg/mL); in test [14], not below 32 µM; in test [15] it was 4 µM (≈ 11.4 µg/mL). For the same compound, in [16], the minimal inhibitory concentration (MIC) was not below 32 µM.
Take `CC[C@H](C)[C@H](NC(=O)CNC(=O)[C@H](CCCCN)NC(=O)[C@H](Cc1c[nH]c2ccccc12)NC(=O)[C@H](CC(C)C)NC(=O)[C@H](CC(C)C)NC(=O)[C@H](Cc1c[nH]c2ccccc12)NC(=O)[C@H](CCCCN)NC(=O)CNC(=O)[C@@H](NC(=O)[C@@H](N)CCCCN)[C@@H](C)CC)C(=O)N[C@@H](CCCCN)C(=O)N[C@@H](CCCCN)C(=O)N[C@H](C(=O)NCC(=O)N[C@@H](CCCCN)C(=O)N[C@@H](Cc1c[nH]c2ccccc12)C(=O)N[C@@H](CC(C)C)C(N)=O)[C@@H](C)CC` [KIGKWLLWKGIKKIGKWL]: the MIC against Candida albicans is 5.66 µM and 4 µM; in test [2] it was 2 µM (≈ 4.39 µg/mL); in [9] it was 4 µM (≈ 8.78 µg/mL); in [10], 8 µM (≈ 17.6 µg/mL).
Turning to `CC(C)C[C@H](NC(=O)[C@H](CC(C)C)NC(=O)[C@H](CCCCN)NC(=O)[C@H](CCCCN)NC(=O)[C@H](CC(C)C)NC(=O)[C@H](CC(C)C)NC(=O)[C@H](CCCCN)NC(=O)[C@H](CCCCN)NC(=O)[C@H](CC(C)C)NC(=O)[C@H](CC(C)C)NC(=O)[C@H](CCCCN)NC(=O)[C@H](CCCCN)NC(=O)[C@H](CC(C)C)NC(=O)[C@@H](N)CC(C)C)C(=O)N[C@@H](CCCCN)C(=O)N[C@@H](CCCCN)C(N)=O` [LLKKLLKKLLKKLLKK], the MIC is 25.7 µM (≈ 50 µg/mL) in test [18]; more than 25.7 µM in [19]; 6.41 µM (≈ 12.5 µg/mL) in [20]; 4.07 µM (≈ 7.93 µg/mL) in [21]; 12.8 µM (≈ 25 µg/mL) in test [22]; 3.23 µM (≈ 6.3 µg/mL) in [23].
Turning to `NC(=O)C[C@H](N)C(=O)N[C@@H](Cc1cnc[nH]1)C(=O)N[C@@H](Cc1cnc[nH]1)C(=O)N[C@@H](CCCN=C(N)N)C(=O)N[C@@H](CCCN=C(N)N)C(=O)N[C@@H](Cc1cnc[nH]1)C(=O)N[C@@H](Cc1cnc[nH]1)C(=O)N[C@@H](CCCN=C(N)N)C(=O)N[C@@H](CS)C(=O)N[C@@H](CCCN=C(N)N)C(=O)O` [NHHRRHHRCR], the MIC in [1] is more than 22.7 µM; in test [24], more than 22.7 µM; in [5], more than 22.7 µM; in [20], more than 22.7 µM; in [25], more than 22.7 µM; in [26], 22.7 µM (≈ 32 µg/mL). The same compound came in with an MIC in test [27] of 22.7 µM (≈ 32 µg/mL).
